Results taken from ChEMBL document CHEMBL1201862, “PubChem BioAssay data set” (2004).
Active and inactive are the calls of the source.

Legend:
[1] = viability loss in Vero cells – cytotoxicity control for Vif-APOBEC3G degradation inhibitor project, dose response (AID 1117358); type: functional; settings: Vero
[2] = molecular target: Kallikrein-7 (Homo sapiens, UniProt P49862); assay: Fluorescence Intensity-based biochemical primary high throughput dose response assay to identify activators of kallikrein-7 (K7) zymogen.
Chain of Kallikrein-7 (P49862 whole entry): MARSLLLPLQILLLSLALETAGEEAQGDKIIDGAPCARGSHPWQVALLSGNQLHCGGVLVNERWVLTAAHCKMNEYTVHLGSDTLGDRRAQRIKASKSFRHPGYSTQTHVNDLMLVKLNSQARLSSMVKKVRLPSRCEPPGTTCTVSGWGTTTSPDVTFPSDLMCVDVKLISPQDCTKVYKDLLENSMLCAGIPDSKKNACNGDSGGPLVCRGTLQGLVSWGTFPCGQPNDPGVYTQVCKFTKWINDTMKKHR

[3] = molecular target: Heat shock protein HSP 90-alpha (Homo sapiens, UniProt P07900); assay: Luminescence-based dose response biochemical high throughput screening assay for inhibitors of the Heat Shock Protein 90 (HSP90). [Related pubchem assays: 1831 (Summary AID.), 1846 (Confirmation screen.), 1789 (Primary screen.)]
[4] = molecular target: FAD-linked sulfhydryl oxidase ALR (Homo sapiens, UniProt P55789); assay: ALR-catalysed DTT oxidation blockers – biochemical, H2O2 detection, luminescence, cherry-pick, dose response (AID 493248)
[5] = molecular target: 1-phosphatidylinositol 4,5-bisphosphate phosphodiesterase beta-3 (Homo sapiens, UniProt Q01970); assay: Fluorescence-based biochemical high throughput dose response assay to identify inhibitors of phospholipase C isozymes (PLC-B3).
[6] = molecular target: 1-phosphatidylinositol 4,5-bisphosphate phosphodiesterase gamma-1 (Homo sapiens, UniProt P19174); assay: Counterscreen for inhibitors of phospholipase C isozymes (PLC-B3): Fluorescence-based biochemical high throughput dose response assay to identify inhibitors of phospholipase C isozymes (PLC-gamma1).
Chain of 1-phosphatidylinositol 4,5-bisphosphate phosphodiesterase gamma-1 (P19174 whole entry): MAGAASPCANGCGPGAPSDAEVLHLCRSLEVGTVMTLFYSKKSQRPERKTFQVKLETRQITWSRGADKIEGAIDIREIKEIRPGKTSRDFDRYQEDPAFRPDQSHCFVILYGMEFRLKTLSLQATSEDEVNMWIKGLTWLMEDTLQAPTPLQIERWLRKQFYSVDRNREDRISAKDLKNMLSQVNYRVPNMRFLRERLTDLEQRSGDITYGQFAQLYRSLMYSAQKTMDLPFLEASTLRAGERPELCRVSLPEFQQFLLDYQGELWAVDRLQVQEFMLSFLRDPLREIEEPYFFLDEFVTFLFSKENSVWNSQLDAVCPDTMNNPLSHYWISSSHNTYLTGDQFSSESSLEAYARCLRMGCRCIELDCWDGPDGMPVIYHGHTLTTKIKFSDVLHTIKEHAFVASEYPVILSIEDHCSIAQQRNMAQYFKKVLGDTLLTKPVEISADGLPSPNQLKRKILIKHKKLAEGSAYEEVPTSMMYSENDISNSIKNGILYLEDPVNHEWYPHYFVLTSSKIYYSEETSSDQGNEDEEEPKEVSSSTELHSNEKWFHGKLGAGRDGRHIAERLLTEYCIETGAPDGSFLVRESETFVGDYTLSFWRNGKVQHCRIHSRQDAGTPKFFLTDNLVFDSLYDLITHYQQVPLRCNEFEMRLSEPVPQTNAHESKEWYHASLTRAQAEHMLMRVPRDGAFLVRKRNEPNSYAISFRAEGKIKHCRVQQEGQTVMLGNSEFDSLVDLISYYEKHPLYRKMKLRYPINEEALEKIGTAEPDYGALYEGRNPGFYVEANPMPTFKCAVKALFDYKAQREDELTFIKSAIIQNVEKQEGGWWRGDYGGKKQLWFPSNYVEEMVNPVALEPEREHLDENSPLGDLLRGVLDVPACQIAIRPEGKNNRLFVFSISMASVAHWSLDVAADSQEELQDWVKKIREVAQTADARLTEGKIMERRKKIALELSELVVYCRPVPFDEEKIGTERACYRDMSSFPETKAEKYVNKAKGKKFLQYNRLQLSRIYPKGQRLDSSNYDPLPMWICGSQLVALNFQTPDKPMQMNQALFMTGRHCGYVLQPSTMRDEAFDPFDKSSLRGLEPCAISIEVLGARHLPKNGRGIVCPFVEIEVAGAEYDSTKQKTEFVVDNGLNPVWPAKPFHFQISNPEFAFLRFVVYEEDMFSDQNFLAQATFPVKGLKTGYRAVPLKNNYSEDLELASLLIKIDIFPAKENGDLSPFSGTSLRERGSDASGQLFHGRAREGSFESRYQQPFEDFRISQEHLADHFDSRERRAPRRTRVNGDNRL

[7] = molecular target: T1, Ubiquitin-conjugating enzyme E2 N (Homo sapiens, UniProt P61088); type: functional;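 also: Dose-response confirmation in a TR-FRET assay detecting UBC13-driven polyubiquitin chain formation, inhibition measured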
T1 sequence (P61088 whole entry): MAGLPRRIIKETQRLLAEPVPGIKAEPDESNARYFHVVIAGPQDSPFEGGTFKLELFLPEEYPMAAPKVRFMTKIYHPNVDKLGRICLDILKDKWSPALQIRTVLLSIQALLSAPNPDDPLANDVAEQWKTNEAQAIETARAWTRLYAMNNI

[8] = viability loss in human Jurkat cells – cell-based, luminescence, cytotoxicity control for P. falciparum gametocyte viability project, dose response (AID 1117277); type: functional;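 also: potency reflects loss of cellular ATP meaning fewer viable cells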
[9] = viability inhibitors of stage V gametocytes – luminescence, dose response (AID 1117278); type: functional, cell-based;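 also: gametocytes exposed to compound for 24 hours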
[10] = molecular target: Photoreceptor-specific nuclear receptor (Homo sapiens, UniProt Q9Y5X4); assay: ligands suppressing NR2E3 nuclear receptor activity – biochemical, TR-FRET, dose response (AID 463256); type: functional
[11] = molecular target: Peroxisome proliferator-activated receptor gamma/Nuclear receptor corepressor 2 (Homo sapiens, UniProt P37231+Q9Y618); assay: Counterscreen for NR2E3 inverse agonists: TR-FRET-based biochemical high throughput dose response assay to identify inverse agonists of the interaction between peroxisome proliferator-activated receptor gamma (PPARg) and nuclear receptor co-repressor 2 (NCOR2).; type: functional
Chain of Peroxisome proliferator-activated receptor gamma/Nuclear receptor corepressor 2 (P37231 whole entry): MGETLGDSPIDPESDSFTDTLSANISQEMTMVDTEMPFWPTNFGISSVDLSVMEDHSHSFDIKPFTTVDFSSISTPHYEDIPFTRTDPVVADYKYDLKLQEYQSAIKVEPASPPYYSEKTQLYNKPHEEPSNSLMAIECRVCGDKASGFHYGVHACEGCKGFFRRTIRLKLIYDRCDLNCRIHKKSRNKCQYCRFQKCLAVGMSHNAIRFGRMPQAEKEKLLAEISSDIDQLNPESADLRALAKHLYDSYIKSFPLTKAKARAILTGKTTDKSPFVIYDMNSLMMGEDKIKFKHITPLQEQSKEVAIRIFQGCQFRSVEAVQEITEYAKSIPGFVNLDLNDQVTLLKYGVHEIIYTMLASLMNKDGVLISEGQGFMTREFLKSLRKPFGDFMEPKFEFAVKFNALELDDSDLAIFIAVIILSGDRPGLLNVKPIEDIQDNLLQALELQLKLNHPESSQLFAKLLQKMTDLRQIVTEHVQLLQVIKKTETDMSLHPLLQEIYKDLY
Chain of Peroxisome proliferator-activated receptor gamma/Nuclear receptor corepressor 2 (Q9Y618 whole entry): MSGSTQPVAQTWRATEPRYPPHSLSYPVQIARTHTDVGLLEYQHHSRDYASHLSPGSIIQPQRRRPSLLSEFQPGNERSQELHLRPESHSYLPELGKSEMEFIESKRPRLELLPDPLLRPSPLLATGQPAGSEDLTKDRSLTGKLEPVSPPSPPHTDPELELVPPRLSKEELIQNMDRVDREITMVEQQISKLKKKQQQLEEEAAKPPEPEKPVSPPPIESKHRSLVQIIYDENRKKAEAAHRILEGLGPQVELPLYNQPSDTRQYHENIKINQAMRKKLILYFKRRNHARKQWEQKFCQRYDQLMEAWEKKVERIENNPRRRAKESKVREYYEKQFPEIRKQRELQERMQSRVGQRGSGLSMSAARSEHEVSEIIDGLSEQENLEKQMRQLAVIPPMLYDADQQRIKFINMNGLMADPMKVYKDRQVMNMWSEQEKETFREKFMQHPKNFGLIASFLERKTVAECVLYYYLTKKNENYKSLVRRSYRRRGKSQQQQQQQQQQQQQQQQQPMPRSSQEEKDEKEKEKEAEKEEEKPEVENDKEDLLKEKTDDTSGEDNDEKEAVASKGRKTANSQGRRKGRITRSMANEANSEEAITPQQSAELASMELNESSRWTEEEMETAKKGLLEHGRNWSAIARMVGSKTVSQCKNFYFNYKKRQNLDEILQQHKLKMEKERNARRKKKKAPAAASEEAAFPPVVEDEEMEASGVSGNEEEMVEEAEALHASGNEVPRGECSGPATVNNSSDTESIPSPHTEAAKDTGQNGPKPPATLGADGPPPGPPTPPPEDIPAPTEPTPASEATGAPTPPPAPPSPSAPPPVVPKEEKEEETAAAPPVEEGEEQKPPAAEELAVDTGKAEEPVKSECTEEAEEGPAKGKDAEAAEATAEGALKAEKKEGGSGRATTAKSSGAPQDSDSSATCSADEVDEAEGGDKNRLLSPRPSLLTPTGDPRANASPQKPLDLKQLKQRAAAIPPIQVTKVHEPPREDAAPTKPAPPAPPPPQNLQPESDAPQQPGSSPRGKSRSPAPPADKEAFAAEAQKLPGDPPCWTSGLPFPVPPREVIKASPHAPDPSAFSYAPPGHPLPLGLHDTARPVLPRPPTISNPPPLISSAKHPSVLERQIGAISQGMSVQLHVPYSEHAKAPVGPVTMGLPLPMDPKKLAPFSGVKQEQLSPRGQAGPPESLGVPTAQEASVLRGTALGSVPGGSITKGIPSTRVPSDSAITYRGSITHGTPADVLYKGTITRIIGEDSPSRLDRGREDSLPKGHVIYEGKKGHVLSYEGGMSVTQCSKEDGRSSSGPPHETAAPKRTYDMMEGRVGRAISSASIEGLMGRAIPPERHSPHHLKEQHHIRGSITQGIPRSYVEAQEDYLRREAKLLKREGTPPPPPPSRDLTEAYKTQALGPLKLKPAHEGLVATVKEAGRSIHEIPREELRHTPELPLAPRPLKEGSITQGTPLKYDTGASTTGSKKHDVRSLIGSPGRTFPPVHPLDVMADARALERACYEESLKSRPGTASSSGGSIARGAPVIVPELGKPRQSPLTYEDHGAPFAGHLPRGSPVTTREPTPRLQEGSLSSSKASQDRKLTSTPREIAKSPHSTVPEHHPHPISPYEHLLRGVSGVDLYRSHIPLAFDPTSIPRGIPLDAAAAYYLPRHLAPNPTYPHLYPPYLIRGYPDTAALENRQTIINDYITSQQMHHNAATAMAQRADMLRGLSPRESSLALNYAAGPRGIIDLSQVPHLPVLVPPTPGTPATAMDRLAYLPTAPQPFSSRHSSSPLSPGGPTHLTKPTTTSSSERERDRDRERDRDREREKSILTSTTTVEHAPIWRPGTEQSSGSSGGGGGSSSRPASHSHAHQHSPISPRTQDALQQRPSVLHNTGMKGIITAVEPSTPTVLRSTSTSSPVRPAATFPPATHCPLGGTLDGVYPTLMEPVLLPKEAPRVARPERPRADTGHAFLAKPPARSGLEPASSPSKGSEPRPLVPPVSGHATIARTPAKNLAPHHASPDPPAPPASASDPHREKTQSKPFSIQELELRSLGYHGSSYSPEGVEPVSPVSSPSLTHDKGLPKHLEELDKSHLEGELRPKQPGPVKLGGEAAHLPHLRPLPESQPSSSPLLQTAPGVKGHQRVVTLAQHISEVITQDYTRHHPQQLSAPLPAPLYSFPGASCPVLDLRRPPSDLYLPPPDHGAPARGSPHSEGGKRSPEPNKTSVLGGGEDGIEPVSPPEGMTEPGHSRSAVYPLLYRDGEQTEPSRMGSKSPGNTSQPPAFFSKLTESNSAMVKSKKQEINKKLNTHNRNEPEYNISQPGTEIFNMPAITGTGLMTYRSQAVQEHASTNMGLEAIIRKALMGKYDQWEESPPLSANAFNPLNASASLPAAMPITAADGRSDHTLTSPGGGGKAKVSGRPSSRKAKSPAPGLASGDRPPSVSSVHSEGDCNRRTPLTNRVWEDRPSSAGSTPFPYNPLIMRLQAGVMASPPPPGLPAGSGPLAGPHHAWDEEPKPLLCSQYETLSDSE

[12] = non-specific 3'UTR reporter inhibition in Clone20-Shn3RL – cell-based, Renilla luciferase, cherry-picked, counter-screen for Shn3 inhibitor project, dose response (AID 624133); type: functional
[13] = viability loss in CEM21 cells – cell-based, CellTiter-Glo luminescence, cherry-picked, cytotoxicity control for viral fusion inhibitor project, dose response (AID 652042); type: functional;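 also: potency for signal decrease meaning cytotoxicity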
[14] = HIV-1 AD8 envelope cell-cell fusion blockers – cherry-pick, dose response (AID 652062); type: functional, cell-based;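 also: luciferase signal from cell-cell fusion driven by HIV-1 clade B AD8 Env; potency is for inhibitors of fusion seen as a drop in luminescence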
[15] = reduction of Shn3 3'UTR-driven luciferase in osteoblasts – cell-based, Clone20 osteoblasts, firefly luciferase, cherry-picked, dose response (AID 624132); type: functional;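 also: firefly luciferase luminescence from reporter carrying the Shn3 3'UTR in osteoblasts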
[16] = loss of viability in HepG2 cells – cell-based, CellTiter-Glo, cherry-picked, cytotoxicity control for Shn3 inhibitor project, dose response (AID 624134); type: functional
[17] = molecular target: T2, DNA repair protein RAD52 homolog (Homo sapiens, UniProt P43351); type: functional, biochemical
T2 sequence (P43351 whole entry): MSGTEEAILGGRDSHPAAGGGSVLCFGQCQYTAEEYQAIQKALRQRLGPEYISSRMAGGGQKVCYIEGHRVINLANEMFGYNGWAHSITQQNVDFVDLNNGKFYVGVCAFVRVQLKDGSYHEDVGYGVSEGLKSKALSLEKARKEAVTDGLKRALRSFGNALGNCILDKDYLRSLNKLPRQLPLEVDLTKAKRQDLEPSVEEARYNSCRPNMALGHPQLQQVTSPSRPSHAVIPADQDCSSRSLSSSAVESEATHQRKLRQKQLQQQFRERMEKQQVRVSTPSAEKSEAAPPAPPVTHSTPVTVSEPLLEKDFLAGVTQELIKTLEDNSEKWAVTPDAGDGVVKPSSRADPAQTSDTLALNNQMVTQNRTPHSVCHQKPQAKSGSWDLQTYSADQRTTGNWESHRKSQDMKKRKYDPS

[18] = molecular target: E3 ubiquitin-protein ligase UHRF1 (Homo sapiens, UniProt Q96T88); assay: Counterscreen for inhibitors of 5-meCpG-binding domain protein 2 (MBD2): TRFRET-based biochemical high throughput dose response assay to identify inhibitors of binding of ubiquitin-like with PHD and ring finger domains 1 (UHRF1) to methylated oligonucleotide.
[19] = Trypanosoma cruzi growth suppression in host cells – NIH3T3 host cells, beta-gal luminescence, confirmation (AID 2044); type: functional, cell-based;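 also: intracellular parasites grown in NIH/3T3 mouse fibroblasts as host cells; luminescent beta-galactosidase reporter signal from transgenic T. cruzi replicating inside host cells; inhibitors lower the luminescence signal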
[20] = tested on: INS1; assay: INS-1E survival protection against cytokine death – cell-based, luminescence, retest, dose response (AID 449756); type: functional; settings: Rattus norvegicus;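 also: cell death triggered by IL-1 beta plus TNF-alpha plus IFN-gamma mixture; protective hits raise ATP signal compared with cytokine alone wells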
[21] = molecular target: SWI/SNF-related matrix-associated actin-dependent regulator of chromatin subfamily A member 2 (Homo sapiens, UniProt P51531); assay: Luminescence-based cell-based high throughput dose response assay to identify activators of the function of SWI/SNF related, matrix associated, actin dependent regulator of chromatin, subfamily a, member 2 (SMARCA2, BRM).; type: functional
[22] = Counterscreen for activators of the function of SWI/SNF related, matrix associated, actin dependent regulator of chromatin, subfamily a, member 2 (SMARCA2, BRM): Luminescence-based cell-based high throughput dose response assay to identify non-selective compounds using the VP16 reporter assay.; type: functional
[23] = molecular target: DNA (cytosine-5)-methyltransferase 1 (Homo sapiens, UniProt P26358); assay: inhibition of DNA methylation by DNMT1 – biochemical, fluorescent molecular beacon, confirmation (AID 602386); type: functional
[24] = NIH3T3 cell viability loss – ATP luminescence, mouse fibroblasts, counter-screen, dose response (AID 2010); type: functional, cell-based;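 also: cells exposed to compound for about 90 hours before reading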
[25] = cells; type: functional, cell-based
[26] = cells; type: functional, cell-based; remark: listed apart in the source
[27] = molecular target: T3, COUP transcription factor 2 (Homo sapiens, UniProt P24468); assay: Luminescence-based cell-based high throughput dose response assay to identify inhibitors of COUP-TFII (NR2F2).; type: functional;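 also: HEK293 cells transiently cotransfected with COUP-TFII expression vector and reporter; luciferase reporter luminescence driven by COUP-TFII from the pX2-168 reporter plasmid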
T3 sequence (P24468 whole entry): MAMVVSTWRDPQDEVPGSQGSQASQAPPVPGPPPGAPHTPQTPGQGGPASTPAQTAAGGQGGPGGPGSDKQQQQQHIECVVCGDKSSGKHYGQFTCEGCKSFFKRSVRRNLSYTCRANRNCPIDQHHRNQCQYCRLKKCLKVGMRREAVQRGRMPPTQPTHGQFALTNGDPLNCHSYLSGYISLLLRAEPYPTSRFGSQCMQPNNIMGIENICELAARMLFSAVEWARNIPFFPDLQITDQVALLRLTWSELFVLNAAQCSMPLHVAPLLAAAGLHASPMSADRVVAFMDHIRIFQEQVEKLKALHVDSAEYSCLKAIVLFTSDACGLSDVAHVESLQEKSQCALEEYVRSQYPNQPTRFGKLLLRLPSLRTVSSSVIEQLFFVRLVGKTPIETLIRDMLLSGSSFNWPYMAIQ

[28] = molecular target: Galanin receptor type 3 (Homo sapiens, UniProt O60755); assay: Fluorescence-based cell-based primary high throughput dose response assay to identify antagonists of the Galanin Receptor 3 (GalR3).; type: functional
[29] = cells; type: functional, cell-based; settings: HEK-CNG
[30] = molecular target: RNA-editing ligase 1, mitochondrial (Trypanosoma brucei brucei, UniProt P86926); assay: inhibition of trypanosome RNA editing ligase – biochemical, fluorescence, Trypanosoma brucei, dose response (AID 1117295); type: functional
Chain of RNA-editing ligase 1, mitochondrial (P86926 whole entry, the tested form may be a part): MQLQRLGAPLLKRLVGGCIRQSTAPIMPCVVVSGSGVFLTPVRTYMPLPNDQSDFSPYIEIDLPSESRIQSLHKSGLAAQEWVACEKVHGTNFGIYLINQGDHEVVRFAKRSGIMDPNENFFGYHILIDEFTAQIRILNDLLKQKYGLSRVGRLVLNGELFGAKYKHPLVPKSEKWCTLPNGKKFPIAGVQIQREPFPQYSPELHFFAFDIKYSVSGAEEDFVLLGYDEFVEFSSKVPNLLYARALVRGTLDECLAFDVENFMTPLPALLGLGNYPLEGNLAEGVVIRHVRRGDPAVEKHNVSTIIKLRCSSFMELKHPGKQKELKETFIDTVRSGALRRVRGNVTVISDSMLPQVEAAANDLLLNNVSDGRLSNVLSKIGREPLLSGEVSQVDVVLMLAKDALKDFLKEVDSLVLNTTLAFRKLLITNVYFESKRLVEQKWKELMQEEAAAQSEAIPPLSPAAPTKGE

[31] = molecular target: Disintegrin and metalloproteinase domain-containing protein 17 (Homo sapiens, UniProt P78536); assay: inhibition of ADAM17 substrate cleavage – biochemical, quenched FRET substrate, counter-screen for ADAM10 exosite inhibitor project, dose response (AID 743253)
[32] = potency of ADAM10 substrate cleavage blockers – biochemical, QFRET, dose response (AID 743254);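 also: ADAM10 enzyme with the DM2 quenched FRET peptide as substrate; EDANS fluorescence gain as the protease cuts the substrate; inhibitor potency against ADAM10 proteolytic activity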
[33] = activation of miR-122 Renilla sensor silencing – cell-based, Huh7 psiCHECK-miR122, Renilla luciferase, cherry-picked, dose response (AID 651956); type: functional;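 also: huh7 hepatoma cells stably carrying a psiCHECK-2 miR-122 sensor plasmid; renilla luciferase signal reporting endogenous miR-122 activity after 48 h compound exposure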
[34] = Dd2 parasite growth inhibition in erythrocytes – SYBR Green, dry powder samples, set 9, dose response (AID 1159568); type: functional, cell-based
[35] = general mammalian cell viability loss – activator set, cherry-pick, cytotoxicity control for miR-122 modulator project, dose response (AID 720690); type: functional, cell-based;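 also: HEK293T human cells scored for general mammalian cytotoxicity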
[36] = blockers of HIV-1 envelope-mediated cell-cell fusion – cherry-pick, dose response (AID 652057); type: functional, cell-based
[37] = blockers of HIV-1 ZM109 envelope-driven cell-cell fusion – HeLa effector, CEM target cells, luciferase, cherry-pick, dose response (AID 652058); type: functional, cell-based;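 also: luciferase signal from HIV-1 Env mediated cell-cell fusion of effector and target cells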
[38] = molecular target: Endoplasmic reticulum aminopeptidase 1 (Homo sapiens, UniProt Q9NZ08); assay: inhibition of human ERAP1 enzyme activity – biochemical, cherry-pick, set 2, plate reader, dose response (AID 743314)
[39] = molecular target: T4, Low molecular weight phosphotyrosine protein phosphatase (Homo sapiens, UniProt P24666); assay: inhibition of LMPTP-A enzymatic activity – biochemical, OMFP substrate, fluorescence intensity, set 2, dose response (AID 743307); type: functional
T4 sequence (P24666 whole entry): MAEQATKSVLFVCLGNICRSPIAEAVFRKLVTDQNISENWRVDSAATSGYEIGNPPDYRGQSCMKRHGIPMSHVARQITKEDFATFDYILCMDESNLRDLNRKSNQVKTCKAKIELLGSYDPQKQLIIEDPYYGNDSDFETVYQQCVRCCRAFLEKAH

[40] = molecular target: T4, Low molecular weight phosphotyrosine protein phosphatase; assay: inhibition of human LMPTP enzyme activity – biochemical, absorbance, pNPP substrate, LMPTP-A isoform, set 2, orthogonal assay, dose response (AID 743308); type: functional

SMILES: Cc1ccc(C)c(S(=O)(=O)Nc2ccc3scnc3c2)c1
- CC50 [1]: > 40 µM (active)

SMILES: O=C1c2ccccc2NC(c2ccccc2)N1Cc1ccco1 (centres undefined)
- EC50 [2]: > 69.5 µM (inactive)

SMILES: O=C(O)c1cccc(N2C(=O)/C(=C/c3nc4ccccc4[nH]3)SC2=S)c1
- IC50 [3]: 8.93 µM (active)
- AC50 [4]: 3.31 µM (active)

SMILES: COc1cc(C(=O)Nc2ccc3c(c2)C(=O)N(CCC(=O)O)C3=O)cc(OC)c1OC
- IC50 [5]: > 122 µM (inactive)
- IC50 [6]: > 122 µM (inactive)

SMILES: Cc1cc(C)c2nc(-c3ccccn3)cc(C(=O)n3cccn3)c2c1
- IC50 [7]: > 20 µM (inactive)
- IC50 [8]: > 83.2 µM (inactive)
- IC50 [9]: > 109 µM (inactive)

SMILES: O=C(Nc1ccc(-c2ccc3nncn3n2)cc1)c1ccc(Br)o1
- IC50 [10]: 3.62 µM (active)
- IC50 [11]: 4.01 µM (active)

SMILES: O=C(Nc1ccccn1)C1CCN(S(=O)(=O)c2cccc3nonc23)CC1
- IC50 [8]: > 83.3 µM (inactive)
- IC50 [9]: > 109 µM (inactive)

SMILES: Nc1nonc1C(=O)NCCNCc1cc(Br)ccc1OCc1ccccc1F
- AC50 [12]: 0.91 µM (active)
- AC50 [13]: 40.5 µM (active)
- AC50 [14]: 14.9 µM (active)
- AC50 [15]: 2.5 µM (active)
- AC50 [16]: 40.4 µM (active)

SMILES: CCN(CC)CCC(=O)Nc1cccc2c1C(=O)c1ccccc1C2=O
- AC50 [17]: 0.801 µM (active)
- IC50 [18]: > 43.8 µM (inactive)
- EC50 [19]: 0.61 µM (active)
- AC50 [20]: 4.28 µM (active)
- EC50 [21]: 9.64 µM (active)
- EC50 [22]: > 91.3 µM (inactive)
- IC50 [23]: 6.86 µM (active)
- EC50 [24]: 13.4 µM (active)
- EC50 [25]: > 350 µM (not active)
- EC50 [26]: 59.3 µM (active)

SMILES: Cc1ccccc1Cn1c(C)nc2ccccc21
- IC50 [27]: 13.2 µM (inactive)
- IC50 [28]: 0.331 µM (active)
- EC50 [29]: > 29.9 µM (inactive)

SMILES: CC[C@@H](C)[C@@H]1CN([C@@H](C)CN2CCC[C@H]2CN2C(N)=NC[C@H]2C(C)C)C(=N)N1CCc1ccc(Cl)c(Cl)c1
- IC50 [7]: > 20 µM (inactive)
- IC50 [30]: > 96.6 µM (inactive)

SMILES: CCCCCCNC(=O)O[C@H]1Cn2c(=O)n(CCCCCC)c(=O)n2[C@@H]2CN(S(=O)(=O)c3ccc(C)cc3)C[C@]12O
- IC50 [31]: > 69.5 µM (inactive)
- IC50 [32]: 10.3 µM (inactive)

SMILES: CN1C(=O)c2cc(NC(=O)c3ccc(C(F)(F)F)cc3)ccc2OC[C@H]2O[C@H](CC(=O)NCc3ccc4c(c3)OCO4)CC[C@@H]21
- AC50 [33]: 8.04 µM (active)
- AC50 [34]: 12.6 µM (active)
- AC50 [35]: 22 µM (active)

SMILES: C[C@@H]1CN([C@H](C)CO)S(=O)(=O)c2ccc(C3=CCCCC3)cc2O[C@@H]1CN(C)S(=O)(=O)c1ccc(F)cc1
- AC50 [13]: 32.5 µM (active)
- AC50 [14]: 7.76 µM (active)
- AC50 [36]: 8.56 µM (active)
- AC50 [37]: 12.1 µM (active)

SMILES: COC(=O)[C@H]1[C@H](CO)[C@H]2Cn3c(ccc(/C=C/c4ccccc4)c3=O)[C@@H]1N2C(=O)C1CCC1
- AC50 [38]: 4.93 µM (active)

SMILES: Clc1ccc(-c2cc(NCCCN3CCCCC3)c3ccccc3n2)cc1
- IC50 [39]: 1.54 µM (active)
- IC50 [40]: 2.88 µM (active)

SMILES: O=C(O)C[C@H]1CC[C@@H]2[C@H](COC[C@@H](O)CN2S(=O)(=O)c2ccc(Oc3ccccc3)cc2)O1
- AC50 [34]: 31.1 µM (active)

SMILES: COC(=O)C1=C(C)N(Cc2cccc(C(F)(F)F)c2)C(NCc2ccccc2C(F)(F)F)=NC1c1ccccc1C(F)(F)F (centres undefined)
- IC50 [30]: > 96.6 µM (inactive)

SMILES: c1ccc(-c2nc(N3CCCCC3)c3ccccc3n2)cc1
- IC50 [39]: > 80 µM (inactive)
- IC50 [40]: > 80 µM (inactive)
